Experiments:
[1] = Percent free testosterone calculated in serum samples from the TED trial; type: in vitro ADME, men
Description: Assessment of FT Concentrations in Clinical Trials. FT determined using the dynamic model developed in this study (cFTZBJ) and Vermeulen's equation (cFTV) (as implemented by Mazer, (Mazer 2009)) were compared with those measured using equilibrium dialysis in samples derived from randomized testosterone trials in men (Spitzer et al 2012) and women (Huang et al 2012). These samples had been collected in fasting state in the morning, stored at −80° C., and never thawed.
At baseline and after 12-weeks of testosterone or placebo administration, total testosterone concentrations were measured using LC-MS/MS and SHBG concentrations using a two-site immunofluorometric assay (DELFIA®, Perkin-Elmer, Waltham, Mass.) (21). FT was measured in the same samples by equilibrium dialysis(Bhasin et al 2012).
Application of new Multi-step Dynamic Binding Model with Complex Allostery to Clinical Trials Data. SHBG and albumin are predominantly the two proteins that bind testosterone with significant affinity; the binding affinities of transcortin and orosomucoid for testosterone are extremely low. […]

SHBG = target: T1, SHBG (Homo sapiens, UniProt P04278); conditions: Model A, Vermeulen's model: equal affinity for each monomer in SHBG dimer; fixed model value; cited from earlier work
T1 sequence (P04278 30-402): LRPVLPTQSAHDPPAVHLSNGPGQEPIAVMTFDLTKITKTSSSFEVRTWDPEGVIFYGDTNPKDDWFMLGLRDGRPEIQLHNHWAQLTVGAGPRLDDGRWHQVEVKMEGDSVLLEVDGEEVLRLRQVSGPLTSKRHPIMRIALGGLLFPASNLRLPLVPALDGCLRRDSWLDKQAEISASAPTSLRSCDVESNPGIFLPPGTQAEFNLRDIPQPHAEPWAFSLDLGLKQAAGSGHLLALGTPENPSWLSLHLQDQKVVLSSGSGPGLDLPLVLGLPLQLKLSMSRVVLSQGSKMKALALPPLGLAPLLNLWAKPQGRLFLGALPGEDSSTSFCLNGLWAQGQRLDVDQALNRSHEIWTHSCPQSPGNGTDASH

Structure (SMILES): C[C@]12CC[C@H]3[C@@H](CCC4=CC(=O)CC[C@@]43C)[C@@H]1CC[C@@H]2O [testosterone, 17-β-hydroxyandrost-4-en-3-one]
- fraction of circulating testosterone which is free ([1]; calculated with the new dynamic model (cFTZBJ), clinical trial samples): 2.9±0.4%
- % cFTV ([1]; percent free testosterone calculated with Vermeulen's equation, as generally assumed): 1.5±0.4%
- Kd (SHBG): 1 nM

Reference: patent US10386375B2, “Methods and systems for the diagnosis and treatment of androgen disorders” (Function Promoting Therapies LLC, priority 2013, dated 2019)
